Laboratory results from PubChem BioAssay AID651870 (NMMLSC, 2012).

System: AM2.2-beta2AR cells viability, CellTiter-Glo luminescence, 18 h
Test: cell toxicity in β2-adrenergic receptor AM2.2 line, concentration-response, toxicity counterscreen for β2-adrenergic receptor internalization ligand project, cell-based, CellTiter-Glo luminescent readout, Powder Set 4 (AID 651870)

Compound | EC50 [µM]
CN(CC(=O)N1CCN(c2cccc(C(F)(F)F)c2)CC1)S(=O)(=O)c1ccc(F)cc1 | 31.9
CCCCC(=O)Nc1ccc(S(=O)(=O)N2CCCCC2c2cccnc2)cc1 (stereo not drawn) | 8.76
Cc1ccc(S(=O)(=O)N2CCCCC2C(=O)N2CCN(c3ccc(C(F)(F)F)cn3)CC2)cc1 (stereo not drawn) | 12.8
